“Also recorded” adds a separate entry of the source.
What was measured:
3T3-L1 adipocytes = assay: Glucose uptake in 3T3-L1 adipocytes (3H-labelled 2-deoxyglucose); type: cell-based; details: for Glucose uptake, Mean, Compound + Insulin Group (Control Group = 1.000): 10 μM, 2 h incubation, with insulin, relative to control without insulin; for fold induction at 10 µM: Mus musculus, 3T3-L1, 2 h incubation, baseline (without insulin), relative to control, read-out: Glucose uptake, Mean, Compound Group (Control Group = 1.000)
Experimental: The effect of the compounds on baseline or insulin-stimulated glucose uptake was evaluated, using the model of glucose uptake in 3T3-L1 adipocytes.
Adipose tissue is the target of glucose metabolism in vivo. The sensitivity for insulin and availability of glucose in adipose tissues are tightly associated with the insulin resistance. The transportation of glucose into adipocytes is a rate-limiting step for the glucose metabolism, and also an important indicator for evaluating the sensitivity for insulin in adipose tissue. 3T3-L1 is a kind of pre-adipocyte, and can become adipocyte after differentiated completely. Therefore, 3T3-L1 is a desirable model for the glucose transport.
Pre-adipocyte, 3T3-L1 was induced to differentiate under certain conditions. After 3T3-L1 differentiated into adipocytes, the compounds of interest with different concentrations and DMSO (used as control) can be added and incubated with the adipocytes for different periods, then the glucose uptake could be determined. For evaluating the ability for a compound to stimulate glucose uptake, the baseline and insulin-induced glucose uptake were determined, and the increase in baseline and insulin-induced glucose uptake upon treatment of the compounds as compared with control group (with 0.1% DMSO) is calculated, based on the ^3H-labelled 2-deoxyglucose inside the cells.
3T3-L1 cells purchased from Karolinska Institute (Sweden) were cultured in DMEM medium containing 10% fetal calf serum at 37° C., under 5% CO2. The cells were passaged every 3-4 days. The cells were inoculated into 12-well plate. Upon confluence, culture medium containing 0.5 mM 3-isobutyl-1-methylxanthine, 0.25 μM dexamethasone and 5 μg/ml insulin was added and cultured for 3 days. Then, the culture medium was replaced by a medium containing 5 μg/ml insulin and further cultured for 3 days. The insulin was removed, and the cells had differentiated completely into mature adipocytes after 2 days which could be used to determine the glucose uptake.
23 compounds chosen by the inventors were added into the culture medium of adipocytes in a dose of 10 μM. After incubation for 2 h, the effect of the compounds on glucose uptake in 3T3-L1 cells was observed. Culture medium without compounds was used as negative control. The control group only supplemented with insulin and the experiment group supplemented with compounds plus insulin were also employed to observe the effect of the compounds on glucose uptake.

[1] = test system: Acetyl CoA Carboxylase (ACC); assay: Phosphorylation of ACC in HepG2 cell (Western blot); type: cell-based, Human; details: HepG2, 50 uM, 5 minutes, P<0.01 or P<0.05
Experimental: (§1) Human hepatoma carcinoma cell strain (HepG2, purchased from the cell bank of Shanghai Institute of Cell Biology of Chinese Academy) was used. The Human hepatoma carcinoma cells were passaged by 0.1% pancreatin/0.02% EDTA digestion, and cultured in a incubator at 37° C. using MEM culture medium containing 10% FBS, under 5% CO2/95%.
(§2) HepG2 cells were cultured in 6-well plates for 48 hours until 70%-80% confluence. Serum starvation was started by changing medium with MEM containing 0.5% BSA. After starvation for 6 hours, cells were treated with the compounds (final concentration of 50 uM, containing 0.25% DMSO) for 5 minutes. The culture medium was discarded, and cells were harvested and washed for twice with pre-cooled PBS. The washing liquid was discarded, and any residual PBS was blotted dry. DMSO without heptacyclic compounds was used as control.
(§3) Extraction of total cellular protein: 150 μl/well homogenizing buffer (137 mM NaCl, 2.7 mM KCl, 1 mM MgCl2, 0.5 mM Na3VO4, 1% Triton X-100, 10% Glycerol, 20 mM Tris-HCl pH 7.8, 1 ug/ml Leupeptin, 0.2 mM PMSF, 10 mM NaF, 1 ug/ml Aprotinin, 1 mM EDTA, 1 mM DTT, 5 mM Sodium pyrophosphate, 1 mM Benzamidine) was added. Cells were collected into a 1.5 ml centrifuge tube using cell scraper. Cells were homogenized using sonicator (5 W of power) for 2 times (3 seconds per time), and shaken on a shaker for 1 hour. Supernatant (i.e., total cellular protein) was collected by centrifuging at 14000 rpm for 15 min at 4° C., and stored at −70° C. until use. After the protein concentration was determined by Bradford method, the supernatant was formulated as the loading sample with final concentration of 0.6 mg/ml. The whole preparation process was performed at 4° C.
(§4) Protein Electrophoresis: After being treated at 95° C. for 5 min, the loading sample was loaded (15 μg protein/lane). The protein was separated on 7.5% SDS-acrylamide gel for 1-2 hours under the voltage of 80-120 V.
(§5) Electrotransferring the protein and blocking the membrane: After electrophoresis was finished, the protein was transferred to PVDF membrane using semi-dry transferring slot based on 0.8 mA/cm^2 membrane area under the electric current of 80 mA for 2 hours. After that, the membrane was shaken for 2 hours with 7.5% skim milk/TTBS to block the membrane.
(§6) Antigen-antibody reaction: After the blocking process was finished, the membrane was incubated with primary antibody (antibody against phosphorylated ACC (P-ACC) and antibody against phosphorylated AMPK (P-AMPK), all purchased from Cell signaling (USA), with the working concentration of 1:1000) overnight at 4° C. The membrane was removed, and the primary antibody was recovered. The membrane was washed 5 times, each for 10 min in TTBS. The membrane was shaken for 2 hours with the secondary antibody (horseradish peroxidase-conjugated goat-anti-rabbit IgG antibody, purchased from Bio-rad (USA), with the working concentration of 1:5000) at room temperature. The secondary antibody was discarded. The membrane was washed 5 times, each for 10 min in TTBS in order to remove the unbound secondary antibody.
(§7) ECL exposure and development: Luminescent agents, ECL 1, 2, were mixed homogeneously, and incubated with the membrane for 3-5 min. The membrane was removed, wrapped in preservative film, and transferred into dark room for exposure. After exposure with X-film, the film was developed, washed, recorded and conserved.
(§8) Semi-quantitative analysis was performed through optical density scan using computer image analysis system. Grey level of the protein expression was calculated. The target grey level was divided by the grey level of internal standard, and a histogram was plotted, taking the normal group as 1 unit.

[2] = test system: AMP-Activated Protein Kinase (AMPK); assay: Phosphorylation of AMPK in HepG2 cell (Western blot); type: cell-based, Human; details: HepG2, 50 uM, 5 minutes, P<0.01 or P<0.05
Experimental: as §1, §2, §3, §4, §5, §6, §7, §8

ob/ob mice = assay: Fasting blood glucose in ob/ob mice, several heptacyclic compounds, 8 days; type: in vivo; details: for Fasting blood glucose change in words: dosed continuously for 8 days, P<0.05
Experimental: Genetic spontaneous diabetes ob/ob mice were purchased from Jackson (USA), and maintained in a SPF facility (temperature: 22-24° C., humidity: 45-80%, illumination: 150-300 Lx, 12/12-hour light/dark cycle). Fasting blood glucose was determined for 3 days continuously when the mice were 7 weeks old. The mice were grouped into the treatment group and the control group (6 animals per group) according to the results determined. The treatment groups were administered orally with compound E9, G0 and F7 (psoromic acid) (100 mg/kg), and the control group was administered orally with a solution of 0.1% Tween 80 (blank control), once daily for 8 days. Fasting blood glucose in mice was determined at the end of experiment.

[3] = oral 100 mg/kg once daily, after 8 days treatment

Row | SMILES | Glucose uptake, Mean, Compound + Insulin Group (Control Group = 1.000) (3T3-L1 adipocytes) | fold induction at 10 µM (3T3-L1 adipocytes) | Level of phosphorylation for ACC protein versus DMSO control [1] | Level of phosphorylation for AMPK protein versus DMSO control [2] | Fasting Blood Glucose (ob/ob mice; before administration) [mM] | Fasting blood glucose change in words (ob/ob mice) | Fasting Blood Glucose (ob/ob mice; [3]) [mM]
1 | CCN(CC)C(=O)c1cc(OC)c(C)c2c1Oc1c(C=O)c(O)cc(C)c1C(=O)O2 [AB5, 4-Formyl-3-hydroxy-8-methoxy-1,9-dimethyl-11-oxo-11H-dibenzo[b,e][1,4]dioxepine-6-carboxylic acid diethylamide] | 1.755 | 1.29 | improved significantly | increased significantly | – | – | –
2 | COc1cc(C(=O)NCc2ccccc2)c2c(c1C)OC(=O)c1c(C)cc(O)c(C=NCc3ccccc3)c1O2 [AB6, 4-(Benzylimino-methyl)-3-hydroxy-8-methoxy-1,9-dimethyl-11-oxo-11H-dibenzo[b,e][1,4]dioxepine-6-carboxylic acid benzylamide] | 1.432 | 1.14 | improved significantly | increased significantly | – | – | –
3 | CCOC(=O)c1cc(OC)c(C)c2c1Oc1c(C=O)c(O)cc(C)c1C(=O)O2 [Compound A2, 4-Formyl-3-hydroxy-8-methoxy-1,9-dimethyl-11-oxo-11H-dibenzo[b,e][1,4]dioxepine-6-carboxylic acid ethyl ester] | 3.138 | 1.37 | improved significantly | significant up-regulation | – | – | –
4 | CCCOC(=O)c1cc(OC)c(C)c2c1Oc1c(C=O)c(O)cc(C)c1C(=O)O2 [Compound A4, 4-Formyl-3-hydroxy-8-methoxy-1,9-dimethyl-11-oxo-11H-dibenzo[b,e][1,4]dioxepine-6-carboxylic acid propyl ester] | 3.449 | 1.18 | improved significantly | significant up-regulation | – | – | –
5 | COc1cc(C(=O)O)c2c(c1C)OC(=O)c1c(C)cc(O)c(CNc3ccccc3)c1O2 [Compound B9, 3-Hydroxy-8-methoxy-1,9-dimethyl-11-oxo-4-phenylaminomethyl-11H-dibenzo[b,e][1,4]dioxepine-6-carboxylic acid] | 2.824 | 1.16 | improved significantly | increased significantly | – | – | –
6 | COc1cc(C(=O)O)c2c(c1C)OC(=O)c1c(C)cc(O)c(CNCCn3cccc3)c1O2 [Compound C1, 3-Hydroxy-8-methoxy-1,9-dimethyl-11-oxo-4-[(2-pyrrol-1-yl-ethylamino)-methyl]-11H-dibenzo[b,e][1,4]dioxepine-6-carboxylic acid] | 4.059 | 1.21 | improved significantly | increased significantly | – | – | –
7 | COc1cc(C(=O)O)c2c(c1C)OC(=O)c1c(C)cc(O)c(CNCCN3CCOCC3)c1O2 [Compound C7, 3-Hydroxy-8-methoxy-1,9-dimethyl-4-[(2-morpholin-4-yl-ethylamino)-methyl]-11-oxo-11H-dibenzo[b,e][1,4]dioxepine-6-carboxylic acid] | 3.610 | 1.22 | improved significantly | increased significantly | – | – | –
8 | COc1cc(C(=O)O)c2c(c1C)OC(=O)c1c(C)cc(O)c(CO)c1O2 [Compound E9, 3-Hydroxy-4-hydroxymethyl-8-methoxy-1,9-dimethyl-11-oxo-11H-dibenzo[b,e][1,4]dioxepine-6-carboxylic acid] | 2.965 | 1.1 | improved significantly | significant up-regulation; also recorded: increased significantly | 11.99 ± 1.48 | reduced statistically significant | 8.68 ± 1.32
9 | CCOCc1c(O)c(C(=O)O)c(C)c2c1OC(=O)c1c(C)cc(O)c(C=O)c1O2 [Compound G0, 9-Ethoxymethyl-4-formyl-3,8-dihydroxy-1,6-dimethyl-11-oxo-11H-dibenzo[b,e][1,4]dioxepine-7-carboxylic acid] | 1.297 | 1.22 | improved significantly | increased significantly | 11.95 ± 1.49 | reduced statistically significant | 8.07 ± 1.07
10 | CN(C)C(=N)N=C(N)N [Metformin, reference compound] | – | – | – | – | 12.27 ± 2.69 | – | 8.13 ± 2.76

Reference: patent US8158623B2, “Heptacyclic compounds and the pharmaceutical uses thereof for preventing and treating diabetes and metabolic syndrome” (Shanghai Institute of Materia Medica Chinese Academy of …, priority 2007, dated 2012)
